Assay results: the supplement of paper PMC10307832

Columns and labels:
Assay in all cases: relative viability (nuclei count vs DMSO), 5 days (fraction); higher = more cells survive
Elesclomol + Alpelisib = compound: CN(NC(=O)CC(=O)NN(C)C(=S)c1ccccc1)C(=S)c1ccccc1 [Elesclomol] + Cc1nc(NC(=O)N2CCC[C@H]2C(N)=O)sc1-c1ccnc(C(C)(C)C(F)(F)F)c1 [Alpelisib] (partner 2 µM)
Outline: (§1)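 A single step with final 0.05% Triton X-100, 1% formaldehyde and 1 ug/ml Hoechst fixed the cells and stained nuclei 5 days after treatment. Lung cancer cell lines in 1536-well plates had been treated by pin tool the day after seeding with one drug alone or a fixed anchor-drug dose plus five library-drug doses (not always all listed) in √10 steps, and nuclei were counted on 4× images. Relative viability is the ratio of nuclei in treated wells to nuclei in vehicle wells, taken as the median of duplicate plates.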

Elesclomol + Dasatinib = compound: CN(NC(=O)CC(=O)NN(C)C(=S)c1ccccc1)C(=S)c1ccccc1 [Elesclomol] + Cc1nc(Nc2ncc(C(=O)Nc3c(C)cccc3Cl)s2)cc(N2CCN(CCO)CC2)n1 [Dasatinib] (partner 0.075 µM)
Outline: as §1

Elesclomol + Phenformin = compound: CN(NC(=O)CC(=O)NN(C)C(=S)c1ccccc1)C(=S)c1ccccc1 [Elesclomol] + N=C(N)NC(=N)NCCc1ccccc1 [Phenformin] (partner 250 µM)
Outline: as §1

Elesclomol + Lapatinib = compound: CN(NC(=O)CC(=O)NN(C)C(=S)c1ccccc1)C(=S)c1ccccc1 [Elesclomol] + CS(=O)(=O)CCNCc1ccc(-c2ccc3ncnc(Nc4ccc(OCc5cccc(F)c5)c(Cl)c4)c3c2)o1 [Lapatinib] (partner 2 µM)
Outline: as §1

Elesclomol + Pictilisib = compound: CN(NC(=O)CC(=O)NN(C)C(=S)c1ccccc1)C(=S)c1ccccc1 [Elesclomol] + CS(=O)(=O)N1CCN(Cc2cc3nc(-c4cccc5[nH]ncc45)nc(N4CCOCC4)c3s2)CC1 [Pictilisib] (partner 1 µM)
Outline: as §1

| Cell Line | relative viability (Elesclomol + Alpelisib; first compound 0.003162 µM) | relative viability (Elesclomol + Alpelisib; first compound 0.01 µM) | relative viability (Elesclomol + Alpelisib; first compound 0.03162 µM) | relative viability (Elesclomol + Alpelisib; first compound 0.1 µM) | relative viability (Elesclomol + Dasatinib; first compound 0.003162 µM) | relative viability (Elesclomol + Dasatinib; first compound 0.01 µM) | relative viability (Elesclomol + Dasatinib; first compound 0.03162 µM) | relative viability (Elesclomol + Dasatinib; first compound 0.1 µM) | relative viability (Elesclomol + Phenformin; first compound 0.003162 µM) | relative viability (Elesclomol + Phenformin; first compound 0.01 µM) | relative viability (Elesclomol + Phenformin; first compound 0.03162 µM) | relative viability (Elesclomol + Phenformin; first compound 0.1 µM) | relative viability (Elesclomol + Lapatinib; first compound 0.003162 µM) | relative viability (Elesclomol + Lapatinib; first compound 0.01 µM) | relative viability (Elesclomol + Lapatinib; first compound 0.03162 µM) | relative viability (Elesclomol + Lapatinib; first compound 0.1 µM) | relative viability (Elesclomol + Pictilisib; first compound 0.003162 µM) | relative viability (Elesclomol + Pictilisib; first compound 0.01 µM) | relative viability (Elesclomol + Pictilisib; first compound 0.03162 µM) | relative viability (Elesclomol + Pictilisib; first compound 0.1 µM) |
| --- | --- | --- | --- | --- | --- | --- | --- | --- | --- | --- | --- | --- | --- | --- | --- | --- | --- | --- | --- | --- |
| 201T | 0.985 | 1.02 | 1.03 | 0.964 | 0.535 | 0.587 | 0.543 | 0.236 | 0.464 | 0.428 | 0.435 | 0.385 | 1.04 | 1.08 | 1.07 | 0.985 | 0.672 | 0.652 | 0.665 | 0.674 |
| A549 | 0.731 | 0.229 | 0.0735 | 0.0217 |  |  |  |  | 0.0993 | 0.0488 | 0.0406 | 0.0078 | 0.74 | 0.174 | 0.29 | 0.058 | 0.493 | 0.246 | 0.1 | 0.0728 |
| A-427 | 1.04 | 1.07 | 1.15 | 0.558 | 0.661 | 0.582 | 0.358 | 0.127 | 0.342 | 0.216 | 0.319 | 0.104 | 0.933 | 1.02 | 1.05 | 0.52 | 0.678 | 0.345 | 0.648 | 0.45 |
| ABC-1 | 0.292 | 0.313 | 0.23 | 0.256 | 0.173 | 0.233 | 0.207 | 0.193 | 0.239 | 0.22 | 0.224 | 0.17 | 0.935 | 0.477 | 0.466 | 0.42 | 0.26 | 0.286 | 0.217 | 0.223 |
| BEN | 0.873 | 0.351 | 0.338 | 0.242 | 0.359 | 0.204 | 0.219 | 0.159 | 0.264 | 0.233 | 0.259 | 0.246 | 0.577 | 0.335 | 0.247 | 0.197 | 0.549 | 0.292 | 0.3 | 0.188 |
| CAL-12T | 1.19 | 0.239 | 0.312 | 0.0757 | 0.282 | 0.117 | 0.0442 | 0.0555 | 0.456 | 0.159 | 0.153 | 0.0571 | 0.529 | 0.484 | 0.103 | 0.0805 | 0.521 | 0.146 | 0.0826 | 0.0934 |
| COR-L23 | 0.694 | 0.366 | 0.268 | 0.0856 | 0.439 | 0.254 | 0.141 | 0.068 | 0.367 | 0.187 | 0.163 | 0.053 | 0.885 | 0.484 | 0.434 | 0.178 | 0.662 | 0.308 | 0.224 | 0.24 |
| COR-L 105 | 1.11 | 0.712 | 0.409 | 0.256 | 0.303 | 0.248 | 0.21 | 0.079 | 0.417 | 0.315 | 0.289 | 0.168 | 0.341 | 0.291 | 0.283 | 0.246 | 0.398 | 0.284 | 0.249 | 0.219 |
